One block for each compound: values may come before it.
Legend:
[1] = test system: purified saccharose synthase from rice; experiment: Substrate spectrum for the synthesis of disaccharides: variation of the nucleotide sugar, fructose as acceptor; format: biochemical; conditions: for reaction of UDP-sugar with the rice enzyme (in words): Table 4; for Relative Activity %: UDP-sugars with fructose as acceptor, 2 hours at 30° C., pH 7.5, UDP-glucose = 100
Method: A: Variation of the Nucleotide Sugar.
For the synthesis reaction the nucleotide sugars were varied:
The composition contained:
The composition was incubated for 2 hours at 30° C. and stopped for 5 minutes at 95° C. With HPLC, with comparison with a control (without enzyme) the development of UDP was followed.

[2] = test system: purified sucrose-synthase from rice; experiment: Substrate spectrum for the synthesis of disaccharides: variation of the acceptor, reacted with UDP-glucose; format: biochemical; conditions: for Relative Activity %: acceptor substrates reacted with UDP-glucose, D-fructose = 100
Method: 12. Substrate Spectrum of the Saccharose-synthase from rice for the synthesis of Disaccharides.
B: Variation of the Acceptor.
For the synthesis reaction, the acceptor was varied. Apart from the natural acceptor, other diastereomers of D-fructose, like D-psicose, D-tagatose, D-sorbose were introduced. Further, several keytoses were systematically tested. Apart from Aldoses, nonsugar acceptors were also tested.

[3] = test system: saccharose synthase; experiment: Dependence on divalent metal ions; format: biochemical, rice; conditions: 1 mM of metal ions
Description: 9. Dependence on Divalent Metal Ions

[4] = test system: rice enzyme (sucrose-synthase); experiment: Kinetics (Vmax, Km) of the splitting reaction; format: biochemical; conditions: sucrose 500 mM; for Km: UDP or TDP varied 0 to 10 mM, 1 h at 30° C., pH 6.5
Method: […] All reaction mixtures were incubated for 1 h at 30° C. and pH 6.5 (Hepes-NaOH 200 mM). The samples were treated as described above and analyzed with HPLC. […] The substrate excess inhibition can be countered by higher enzyme quantities.

[5] = test system: purified Sucrose-synthase; experiment: Substrate spectrum of the nucleosidediphosphate; format: biochemical, rice; conditions: pH 7.2, 30° C., FIG. 2
Method: 1. Substrate spectrum of the nucleosidediphosphate.
UDP, TDP, CDP, ADP and GDP were investigated. The reaction compositions contained:
100 μl Nucleosidediphosphate (15-90 mM)
100 μl purified Sucrose-synthase (21.1 mU/ml)
The reaction composition was incubated at 30° C. and stopped at different times (5 min. at 95° C.). After filtration of the sample through a 0.22 μm filter, the resulting nucleotide sugar was analyzed by means of ionpair HPLC.

[6] = test system: purified sucrose-synthase from rice; experiment: Substrate spectrum of the sucrose-synthase for the splitting reaction (saccharide + UDP); format: biochemical; conditions: for Relative Activity %: substrate splitting with UDP, 2 mM UDP, saccharide 75 to 500 mM, 3 h at 30° C., pH 7.2, Saccharose = 100; for replacement of saccharose in the splitting reaction (in words): Table 3
Method: 11. Substrate Spectrum of the Sucrose-Synthase for the splitting reaction (I)
For the splitting reaction of the sucrose-synthase, sucrose was replaced by other disaccharide or trisaccharide:
α-Glc 1-2 β-Fruc+UDP (TDP) UDP-Glc (TDP-Glc)
The concentration of the saccharide amounted to 75 to 500 mM in the reaction composition. 2 mM UDP or TDP and as a rule 10 to 80 mU enzyme were introduced. After 3 h at 30° C. and pH 7.2 (200 mM Hepes-NaOH), the reaction was stopped at 95° C. 5 min. The formation of nucleotide sugars was followed with HPLC and compared with a control (without enzyme).

reaction of UDP-sugar with the rice enzyme (in words) [1]: can be reacted with the rice enzyme
SMILES: CC(=O)N[C@H]1[C@@H](OP(=O)(O)OP(=O)(O)OC[C@H]2O[C@@H](n3ccc(=O)[nH]c3=O)[C@H](O)[C@@H]2O)O[C@H](CO)[C@@H](O)[C@@H]1O [UDP-N-acetylglucosamine]
Relative Activity % [1]: 1.8%

SMILES: CN1[C@@H]2CC[C@H]1C[C@@H](O)C2 [Tropin]
Relative Activity % [2]: 10.3%

influence of metal ions on the enzyme activity [3]: completely inactivated
SMILES: [Cu+2] [Cu^2+]

SMILES: OCC(O)CN1CCCC1 (centres unmarked) [3-pyrrolidino-1,2-propandiol]
Relative Activity % [2]: 9.6%

SMILES: C[C@H](O)[C@@H](O)[C@H](O)C(=O)CO [6-desoxy-L-sorbase]
Relative Activity % [2]: 8.8%

SMILES: CC(C)[C@@H](O)[C@H](O)C(=O)CO [5,6-dideoxy-5-methyl-D-fructose]
Relative Activity % [2]: 19.0%

Km [4]: 400 µM
Ki ([4]; with 0.9 mU enzyme, pH 6.5, 30° C., read-out: substrate excess inhibition Ki(S)): 16 mM
SMILES: O=c1ccn([C@@H]2O[C@H](COP(=O)(O)OP(=O)(O)O)[C@@H](O)[C@H]2O)c(=O)[nH]1 [UDP]
acceptance of the nucleosidediphosphate (rate of NDP-glucose formation) [5]: accepted in the sequence UDP, TDP, ADP, CDP and GDP

SMILES: O=C(CO)[C@@H](O)[C@H](O)CO [D-xylulose]
acceptor of sucrose-synthase (in words) [2]: acceptors
Relative Activity % [2]: 40.7%

SMILES: CC[C@@H](O)[C@H](O)C(=O)CO [5,6-dideoxy-D-fructose]
Relative Activity % [2]: 7.6%

reaction of UDP-sugar with the rice enzyme (in words) [1]: can be reacted with the rice enzyme
SMILES: O=c1ccn([C@@H]2O[C@H](COP(=O)(O)OP(=O)(O)O[C@H]3OC[C@@H](O)[C@H](O)[C@H]3O)[C@@H](O)[C@H]2O)c(=O)[nH]1 [UDP-xylose]
Relative Activity % [1]: 1.7%

SMILES: CC1(C)S[C@@H]2[C@H](NC(=O)[C@H](N)c3ccccc3)C(=O)N2[C@H]1C(=O)O [Ampicillin, reference compound]
Relative Activity % [6]: 2.4%

SMILES: O=C(CO)[C@@H](O)[C@H](O)[C@@H](O)CO [L-sorbose]
acceptor of sucrose-synthase (in words) [2]: acceptors
Relative Activity % [2]: 6.0%

influence of metal ions on the enzyme activity, TDP as the substrate [3]: stimulation of the enzyme activity
SMILES: [Ca+2] [Ca^2+]

SMILES: OC[C@H]1O[C@@](CO)(O[C@H]2O[C@H](CO)[C@@H](O)[C@H](O)[C@H]2O)[C@@H](O[C@H]2O[C@H](CO)[C@@H](O)[C@H](O)[C@H]2O)[C@@H]1O [Melizitose]
Relative Activity % [2]: 0.6%
replacement of saccharose in the splitting reaction (in words) [6]: can replace the saccharose
Relative Activity % [6]: 0.4%

SMILES: CN1CCC(O)C1 (centres unmarked) [3-hydroxy-N-methyl-pyrrolidine]
Relative Activity % [2]: 1.9%

SMILES: OC1CCNC1 (centres unmarked) [3-hydroxypyrrolidine]
Relative Activity % [2]: 6.3%

influence of metal ions on the enzyme activity [3]: completely inactivated
SMILES: [Fe+2] [Fe^2+]

SMILES: OC[C@H]1O[C@H](OC[C@H]2O[C@H](O[C@]3(CO)O[C@H](CO)[C@@H](O)[C@@H]3O)[C@H](O)[C@@H](O)[C@@H]2O)[C@H](O)[C@@H](O)[C@H]1O [Raffinose]
acceptor of sucrose-synthase (in words) [2]: can also serve as acceptors
Relative Activity % [2]: 8.4%
replacement of saccharose in the splitting reaction (in words) [6]: can replace the saccharose
Relative Activity % [6]: 3.8%

Km [4]: 650 µM
SMILES: Cc1cn([C@H]2C[C@H](O)[C@@H](COP(=O)(O)OP(=O)(O)O)O2)c(=O)[nH]c1=O [TDP]
acceptance of the nucleosidediphosphate (rate of NDP-glucose formation) [5]: accepted in the sequence UDP, TDP, ADP, CDP and GDP

SMILES: O=C[C@@H](O)[C@@H](O)[C@H](O)CO [D-lyxose]
acceptor of sucrose-synthase (in words) [2]: acceptors
Relative Activity % [2]: 14.7%

SMILES: Nc1ccn([C@@H]2O[C@H](COP(=O)(O)OP(=O)(O)O)[C@@H](O)[C@H]2O)c(=O)n1 [CDP]
acceptance of the nucleosidediphosphate (rate of NDP-glucose formation) [5]: accepted in the sequence UDP, TDP, ADP, CDP and GDP

influence of metal ions on the enzyme activity [3]: influenced only slightly
SMILES: [Mg+2] [Mg^2+]

SMILES: Nc1ncnc2c1ncn2[C@@H]1O[C@H](COP(=O)(O)OP(=O)(O)O)[C@@H](O)[C@H]1O [ADP]
acceptance of the nucleosidediphosphate (rate of NDP-glucose formation) [5]: accepted in the sequence UDP, TDP, ADP, CDP and GDP

SMILES: OC[C@H]1O[C@@H](O[C@@H]2[C@@H](CO)OC(O)(CO)[C@H]2O)[C@H](O)[C@@H](O)[C@H]1O (mixture of isomers) [Lactulose]
acceptor of sucrose-synthase (in words) [2]: can also serve as acceptors
Relative Activity % [2]: 12.3%

SMILES: O=C(CO)[C@@H](O)[C@H](O)[C@H](O)CO [D-fructose]
Relative Activity % [2]: 100%

SMILES: OCCN1CCCCC1
Relative Activity % [2]: 9.4%

SMILES: O=C[C@@H](O)[C@@H](O)[C@H](O)[C@H](O)CO [D-mannose]
acceptor of sucrose-synthase (in words) [2]: acceptors
Relative Activity % [2]: 3.9%

SMILES: CC(=O)[C@@H](O)[C@H](O)C(=O)CO [5-keto-6-deoxy-D-fructose]
Relative Activity % [2]: 25.1%

SMILES: O=C[C@H](O)[C@@H](O)[C@@H](O)CO [L-arabinose]
acceptor of sucrose-synthase (in words) [2]: acceptors
Relative Activity % [2]: 3.2%

SMILES: Nc1nc2c(ncn2[C@@H]2O[C@H](COP(=O)(O)OP(=O)(O)O)[C@@H](O)[C@H]2O)c(=O)[nH]1 [GDP]
acceptance of the nucleosidediphosphate (rate of NDP-glucose formation) [5]: accepted in the sequence UDP, TDP, ADP, CDP and GDP

SMILES: CCN1CCC(O)C1 (centres unmarked) [1-ethyl-3-hydroxy-pyrrolidine]
Relative Activity % [2]: 10.4%

SMILES: CCCCCCCCO[C@@H]1O[C@H](CO)[C@@H](O)[C@H](O)[C@H]1O [Octyl-β-D-glucopyranoside]
acceptor of sucrose-synthase (in words) [2]: acceptors
Relative Activity % [2]: 0.5%

SMILES: O[C@@H]1[C@@H](O)[C@@H]2OC[C@@H](O2)[C@H]1O [1,6-Anhydroglucose]
acceptor of sucrose-synthase (in words) [2]: acceptors
Relative Activity % [2]: 9.1%

influence of metal ions on the enzyme activity [3]: influenced only slightly
influence of metal ions on the enzyme activity, TDP as the substrate [3]: stimulation of the enzyme activity
SMILES: [Mn+2] [Mn^2+]

SMILES: OC[C@@]12OC[C@@H](O1)[C@@H](O)[C@@H](O)[C@@H]2O [Sedoheptulose Anhydride]
Relative Activity % [2]: 1.1%

SMILES: O=C(CO)[C@H](O)[C@H](O)[C@H](O)CO [D-psicose]
Relative Activity % [2]: 14.1%

SMILES: O=C(CO)[C@@H](O)[C@@H](O)[C@H](O)CO [D-tagatose]
Relative Activity % [2]: 28.3%

SMILES: O=C(CO)[C@@H](O[C@H]1O[C@H](CO)[C@@H](O)[C@H](O)[C@H]1O)[C@H](O)[C@H](O)CO [Turanose]
Relative Activity % [2]: 0.5%

SMILES: OC[C@H]1O[C@H](OC[C@H]2OC(O)(CO)[C@@H](O)[C@@H]2O)[C@H](O)[C@@H](O)[C@@H]1O (some centres unmarked) [Isomaltulose]
Relative Activity % [2]: 3.1%
replacement of saccharose in the splitting reaction (in words) [6]: can replace the saccharose
Relative Activity % [6]: 1.0%

SMILES: OC[C@H]1O[C@@](CO)(O[C@@H]2C[C@@H](O)[C@H](O)[C@@H](CO)O2)[C@@H](O)[C@@H]1O [2-deoxy-saccharose]
Relative Activity % [6]: 55%

SMILES: OC[C@H]1O[C@@](CO)(O[C@H]2O[C@H](CO)[C@@H](O)[C@H](O)[C@H]2O)[C@@H](O)[C@@H]1O [Saccharose]
Relative Activity % [6]: 100%

Source: US5750389A, “Purified saccharose-synthase, process for its production and its use” (Forschungszentrum Julich GmbH, priority 1992, dated 1998)
